Bridge positions count the residues as written; N and C are the ends. Square brackets hold non-standard residues; d marks the D form. Peptide text beside a SMILES is read from it. Hyp = O=C(O)[C@@H]1C[C@@H](O)CN1; Cit = NC(=O)NCCC[C@H](N)C(=O)O

One data set addresses T1, hAMY3 receptor (Homo sapiens, UniProt O60896+P30988).
T1 sequence (P30988 25-474): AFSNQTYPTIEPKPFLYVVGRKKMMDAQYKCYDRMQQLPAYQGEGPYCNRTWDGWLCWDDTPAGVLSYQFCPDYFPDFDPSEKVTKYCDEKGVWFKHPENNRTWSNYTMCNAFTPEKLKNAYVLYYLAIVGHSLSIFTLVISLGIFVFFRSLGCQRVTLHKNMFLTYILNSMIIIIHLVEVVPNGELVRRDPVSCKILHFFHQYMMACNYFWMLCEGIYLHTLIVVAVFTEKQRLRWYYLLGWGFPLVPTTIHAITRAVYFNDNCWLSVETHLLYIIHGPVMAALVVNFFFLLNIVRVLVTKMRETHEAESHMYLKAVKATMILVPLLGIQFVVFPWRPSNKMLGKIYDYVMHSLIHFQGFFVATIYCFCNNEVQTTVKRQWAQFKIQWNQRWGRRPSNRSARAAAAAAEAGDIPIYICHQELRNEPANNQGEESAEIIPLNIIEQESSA
T1 sequence (O60896 24-148 partner): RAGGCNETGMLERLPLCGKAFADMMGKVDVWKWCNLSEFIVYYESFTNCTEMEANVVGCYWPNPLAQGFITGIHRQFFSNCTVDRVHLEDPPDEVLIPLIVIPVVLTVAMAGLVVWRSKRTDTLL
Nature of the data set: cAMP assay for in vitro receptor activation, hAMY3-R. It is filed as cell-based. To be noted: cAMP assay, hAMY3 receptor; read-out: hAMY3R EC50. The method in brief: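 Thawed cells from a sub-cloned monoclonal hAMY3-overexpressing line are plated in DPBS containing 0.05% casein and 0.5 mM IBMX. Test compounds are added immediately at graded doses for 30 min at room temperature. Reagents for cAMP detection are then added, and TR-FRET is recorded after one hour.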

Data set [1] is described as follows: Physical stability of peptide analogues (Thioflavin T fibrillation). It is filed as physicochemical. Conditions: maximum ThT signal normalized between hAMY maximum and buffer background; 40° C., shaking, four days; pH 7 per table title. In outline: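 Maximum ThT emission at 480 nm, after LOESS smoothing, is given as percent of the span from buffer background to hAMY. Conditions: 50 mM buffer at pH 4 or 7, 4 μM dye, 40 °C, repeated shaking, readings every 10 min for four days.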

By EC50 is commonly meant the midpoint of the concentration-response curve. With `CC[C@H](C)[C@H](NC(=O)[C@H](CCC(N)=O)NC(=O)[C@H](Cc1c[nH]cn1)NC(=O)[C@H](C)NC(=O)[C@H](CC(C)C)NC(=O)[C@H](CCCNC(=N)N)NC(=O)[C@H](CCC(N)=O)NC(=O)[C@@H](NC(=O)[C@@H](NC(=O)[C@@H]1CSSC[C@H](NC(=O)CN)C(=O)N[C@@H](CCCNC(=N)N)C(=O)N[C@@H]([C@@H](C)O)C(=O)NCC(=O)N[C@@H]([C@@H](C)O)C(=O)N1)[C@@H](C)O)C(C)C)C(=O)N[C@@H](Cc1ccc(O)cc1)C(=O)N[C@@H](CCC(N)=O)C(=O)N[C@@H](Cc1ccccc1)C(=O)N[C@H](C(=O)N[C@@H](CC(=O)O)C(=O)N[C@@H](CCCCN)C(=O)N[C@@H](CC(=O)O)C(=O)N[C@@H](CCCCN)C(=O)N[C@@H](CC(=O)O)C(=O)N[C@@H](CC(N)=O)C(=O)N[C@H](C(=O)N[C@@H](C)C(=O)N1CCC[C@H]1C(=O)N[C@@H](CCCNC(=N)N)C(=O)N[C@@H](CO)C(=O)N[C@@H](CC(N)=O)C(=O)N[C@H](C(=O)N[C@@H](CO)C(=O)N1CCC[C@H]1C(=O)N[C@@H](CCC(N)=O)C(=O)NCC(=O)N1C[C@H](O)C[C@H]1C(N)=O)C(C)C)C(C)C)[C@@H](C)O` [compound 224] (H-GCRTGTCTVQRLAHQIYQFTDKDKDNVAPRSNVSPQG[Hyp]-NH2; disulfide 2-7; N-terminus assumed), the EC50 on hAMY3 receptor worked out at 0.186 nM. For the same molecule, the “Max ThT signal (%)” value in data set [1] stood at 2.000%.

Consider `CC[C@H](C)[C@H](NC(=O)[C@H](CCC(N)=O)NC(=O)[C@H](C)NC(=O)[C@H](C)NC(=O)[C@H](CC(C)C)NC(=O)[C@H](CCCNC(N)=O)NC(=O)[C@H](CCC(N)=O)NC(=O)[C@@H](NC(=O)[C@@H](NC(=O)[C@@H]1CSSC[C@H](NC(=O)[C@@H](N)CCCCN)C(=O)N[C@@H](CC(N)=O)C(=O)N[C@@H]([C@@H](C)O)C(=O)N[C@@H](C)C(=O)N[C@@H]([C@@H](C)O)C(=O)N1)[C@@H](C)O)C(C)C)C(=O)N[C@@H](Cc1ccc(O)cc1)C(=O)N[C@@H](CCC(N)=O)C(=O)N[C@@H](Cc1ccccc1)C(=O)N[C@H](C(=O)N[C@@H](CC(=O)O)C(=O)N[C@@H](CCCCN)C(=O)N[C@@H](CC(=O)O)C(=O)N[C@@H](CCCCN)C(=O)N[C@@H](CC(=O)O)C(=O)N[C@@H](CC(N)=O)C(=O)N[C@H](C(=O)N[C@@H](C)C(=O)N1CCC[C@H]1C(=O)N1CCC[C@H]1C(=O)N[C@H](C(=O)N[C@@H](CC(N)=O)C(=O)N[C@H](C(=O)NCC(=O)N[C@@H](CO)C(=O)N[C@@H](CC(N)=O)C(=O)NCC(=O)N1C[C@H](O)C[C@H]1C(N)=O)C(C)C)[C@@H](C)O)C(C)C)[C@@H](C)O` [compound 243] (H-KCNTATCTVQ[Cit]LAAQIYQFTDKDKDNVAPPTNVGSNG[Hyp]-NH2; disulfide 2-7; N-terminus assumed), for which the EC50 on hAMY3 receptor turned out to be 0.018 nM. For the same molecule, the “Max ThT signal (%)” value in data set [1] came to 8.550%.

As for `CC[C@H](C)[C@H](NC(=O)[C@H](CCC(N)=O)NC(=O)[C@H](Cc1c[nH]cn1)NC(=O)[C@H](C)NC(=O)[C@H](CC(C)C)NC(=O)[C@H](CCCNC(N)=O)NC(=O)[C@H](CCC(N)=O)NC(=O)[C@@H](NC(=O)[C@@H](NC(=O)[C@@H]1CSSC[C@H](NC(=O)[C@@H](N)CCCCN)C(=O)N[C@@H](CC(N)=O)C(=O)N[C@@H]([C@@H](C)O)C(=O)N[C@@H](C)C(=O)N[C@@H]([C@@H](C)O)C(=O)N1)[C@@H](C)O)C(C)C)C(=O)N[C@@H](Cc1ccc(O)cc1)C(=O)N[C@@H](CCC(N)=O)C(=O)N[C@@H](Cc1ccccc1)C(=O)N[C@H](C(=O)N[C@@H](CC(=O)O)C(=O)N[C@@H](CCCCN)C(=O)N[C@@H](CC(=O)O)C(=O)N[C@@H](CCCCN)C(=O)N[C@@H](CC(=O)O)C(=O)N[C@@H](CC(N)=O)C(=O)N[C@H](C(=O)N[C@@H](C)C(=O)N1CCC[C@H]1C(=O)N[C@@H](CCCNC(=N)N)C(=O)N[C@H](C(=O)N[C@@H](CCCCN)C(=O)N[C@H](C(=O)NCC(=O)N[C@@H](CO)C(=O)N[C@@H](CC(N)=O)C(=O)NCC(=O)N1C[C@H](O)C[C@H]1C(N)=O)C(C)C)[C@@H](C)O)C(C)C)[C@@H](C)O` [compound 248] (H-KCNTATCTVQ[Cit]LAHQIYQFTDKDKDNVAPRTKVGSNG[Hyp]-NH2; disulfide 2-7; N-terminus assumed), the EC50 on hAMY3 receptor is 0.027 nM. Besides, the “Max ThT signal (%)” value in data set [1] is 13.600%.

For the molecule `CC[C@H](C)[C@H](NC(=O)[C@H](CCC(N)=O)NC(=O)[C@H](Cc1c[nH]cn1)NC(=O)[C@H](C)NC(=O)[C@H](CC(C)C)NC(=O)[C@H](CCCNC(N)=O)NC(=O)[C@H](CCC(N)=O)NC(=O)[C@@H](NC(=O)[C@@H](NC(=O)[C@@H]1CSSC[C@H](NC(=O)[C@@H](N)CCCCN)C(=O)N[C@@H](CC(N)=O)C(=O)N[C@@H]([C@@H](C)O)C(=O)N[C@@H](C)C(=O)N[C@@H]([C@@H](C)O)C(=O)N1)[C@@H](C)O)C(C)C)C(=O)N[C@@H](Cc1ccc(O)cc1)C(=O)N[C@@H](CCC(N)=O)C(=O)N[C@@H](Cc1ccccc1)C(=O)N[C@H](C(=O)N[C@@H](CC(=O)O)C(=O)N[C@@H](CCCCN)C(=O)N[C@@H](CC(=O)O)C(=O)N[C@@H](CCCCN)C(=O)N[C@@H](CC(=O)O)C(=O)N[C@@H](CC(N)=O)C(=O)N[C@H](C(=O)N[C@@H](C)C(=O)N1CCC[C@H]1C(=O)N[C@@H](CCCNC(=N)N)C(=O)N[C@H](C(=O)N[C@@H](CCCCN)C(=O)N[C@H](C(=O)NCC(=O)N[C@@H](CO)C(=O)N[C@@H](CC(N)=O)C(=O)NCC(=O)N[C@@H](Cc1ccc(O)cc1)C(N)=O)C(C)C)[C@@H](C)O)C(C)C)[C@@H](C)O` [compound 257] (H-KCNTATCTVQ[Cit]LAHQIYQFTDKDKDNVAPRTKVGSNGY-NH2; disulfide 2-7; N-terminus assumed), on hAMY3 receptor, the EC50 worked out at 0.016 nM. The “Max ThT signal (%)” value in data set [1] is 20.950%.

For the molecule `CC[C@H](C)[C@H](NC(=O)[C@H](CCC(N)=O)NC(=O)[C@H](Cc1c[nH]cn1)NC(=O)[C@H](C)NC(=O)[C@H](CC(C)C)NC(=O)[C@H](CCCNC(N)=O)NC(=O)[C@H](CCC(N)=O)NC(=O)[C@@H](NC(=O)[C@@H](NC(=O)[C@@H]1CSSC[C@H](NC(=O)CN)C(=O)N[C@@H](CCCNC(=N)N)C(=O)N[C@@H](Cc2ccccc2)C(=O)NCC(=O)N[C@@H]([C@@H](C)O)C(=O)N1)[C@@H](C)O)C(C)C)C(=O)N[C@@H](Cc1ccc(O)cc1)C(=O)N[C@@H](CCC(N)=O)C(=O)N[C@@H](Cc1ccccc1)C(=O)N[C@H](C(=O)N[C@@H](CC(=O)O)C(=O)N[C@@H](CCCCN)C(=O)N[C@@H](CC(=O)O)C(=O)N[C@@H](CCCCN)C(=O)N[C@@H](CC(=O)O)C(=O)N[C@@H](CC(N)=O)C(=O)N[C@H](C(=O)N[C@@H](C)C(=O)N1CCC[C@H]1C(=O)N[C@@H](CCCNC(=N)N)C(=O)N[C@H](C(=O)N[C@@H](CCCCN)C(=O)N[C@H](C(=O)NCC(=O)N1CCC[C@H]1C(=O)N[C@@H](CCC(N)=O)C(=O)NCC(=O)N1C[C@H](O)C[C@H]1C(N)=O)C(C)C)[C@@H](C)O)C(C)C)[C@@H](C)O` [compound 259] (H-GCRFGTCTVQ[Cit]LAHQIYQFTDKDKDNVAPRTKVGPQG[Hyp]-NH2; disulfide 2-7), at hAMY3 receptor, the concentration giving a half-maximal response (EC50) was determined as 0.013 nM. For the same molecule, the “Max ThT signal (%)” value in data set [1] is on record as 13.450%.

`CC[C@H](C)[C@H](NC(=O)[C@H](CC(N)=O)NC(=O)[C@@H](NC(=O)[C@H](CCCNC(=N)N)NC(=O)[C@@H]1CCCN1C(=O)[C@H](C)NC(=O)[C@@H](NC(=O)[C@H](CC(N)=O)NC(=O)[C@H](CC(=O)O)NC(=O)[C@H](CCCCN)NC(=O)[C@H](CC(=O)O)NC(=O)[C@H](CCCCN)NC(=O)[C@H](CC(=O)O)NC(=O)[C@@H](NC(=O)[C@H](Cc1ccccc1)NC(=O)[C@H](CCC(N)=O)NC(=O)[C@H](Cc1ccc(O)cc1)NC(=O)[C@@H](NC(=O)[C@H](CCC(N)=O)NC(=O)[C@H](Cc1c[nH]cn1)NC(=O)[C@H](C)NC(=O)[C@H](CC(C)C)NC(=O)[C@H](CCCNC(N)=O)NC(=O)[C@H](CCC(N)=O)NC(=O)[C@@H](NC(=O)[C@@H](NC(=O)[C@@H]1CSSC[C@H](NC(=O)CN)C(=O)N[C@@H](CCCNC(=N)N)C(=O)N[C@@H](Cc2ccccc2)C(=O)NCC(=O)N[C@@H]([C@@H](C)O)C(=O)N1)[C@@H](C)O)C(C)C)[C@@H](C)CC)[C@@H](C)O)C(C)C)[C@@H](C)O)C(=O)NCC(=O)N1CCC[C@H]1C(=O)N[C@@H](CCC(N)=O)C(=O)NCC(=O)N1C[C@H](O)C[C@H]1C(N)=O` [compound 260] (H-GCRFGTCTVQ[Cit]LAHQIYQFTDKDKDNVAPRTNIGPQG[Hyp]-NH2; disulfide 2-7; N-terminus assumed): on hAMY3 receptor, the EC50 came out at 0.011 nM. Moreover, the “Max ThT signal (%)” value in data set [1] turned out to be 34.100%.

Values taken from patent US12139520B2 (priority 2020, dated 2024).
